“And” between values parts separate entries of the source, which are not always exact repeats. Identical values can stand only once.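 In this assay, cells in 96-well plates receive the compound at five concentrations for 48 hours. Endpoints are linearly interpolated between the surrounding concentrations. GI50: concentration for 50% inhibition of growth. Definition used: TGI = concentration required for complete inhibition of growth.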

Experiment in all cases: inhibition of tumour cell growth, NCI panel, 48 h
Test [1] deals with MALME-3M melanoma.
Test [2] deals with A498 renal.
Test [3] deals with HL-60(TB) leukemia.
The subject of test [4] is RXF 393 renal.
Test [5] relates to SK-MEL-2 melanoma.
Test [6] deals with CAKI-1 renal.
Test [7] concerns SF-295 CNS.
Test [8] relates to SR leukemia.
Test [9] deals with SF-539 CNS.
In test [10] the test system is HT29 colon.

As for `Fc1ccc(C(OCCN2CC3CC2CN3)c2ccc(F)cc2)cc1` (stereo not given), the TGI in test [1] was 32.3 µM; in [2], greater than 100 µM; in [3] it was greater than 100 µM; in [4] it was greater than 100 µM; in test [5] it was 38.1 µM; in test [6] it was greater than 100 µM. The TGI was greater than 100 µM in test [7], 73 µM in [8] and greater than 100 µM in [9].
As to `O=S(=O)(c1ccc2ccccc2c1)N1CCN(S(=O)(=O)c2ccc3ccccc3c2)CC1`, the TGI in test [1], in test [2], in test [3], in test [4], in test [10] and in test [5] was greater than 100 µM in each case. The TGI in [6], in test [7] and in test [8] was greater than 100 µM in each case.
Consider `CO/C(=N\N=C(/c1ccccc1)C(F)(F)F)c1ccncc1`, for which the TGI in test [1], in [2], in test [3], in test [4], in test [10] and in test [5] was greater than 100 µM in each case. Further, the TGI in test [6], in test [7] and in [8] was greater than 100 µM in each case.
As for `CCN(CC)C(=S)SSCCO`, the GI50 was 17.9 µM in test [1]; 85 µM in test [2]; 2.17 µM in test [3]; 19.4 µM in test [4]; 17 µM in test [10]; 19.9 µM in test [5]. Moreover, the GI50 in test [6] is 13.6 µM; in [7] it was 33.5 µM; in test [9] it was 15.7 µM. The TGI in test [1] is 35 µM; in test [2], greater than 100 µM; in test [3], 8.96 µM; in [4], 34.8 µM; in [10] it was 30.8 µM; in test [5], 39.6 µM. The TGI was 27.5 µM in test [6], greater than 100 µM in test [7] and 29.1 µM in test [9].
Regarding `Cc1cc(C)c(S(=O)(=O)N(CCCN)OCCCN)c(C)c1`, the TGI in test [1], in [4], in test [10], in test [5], in [6] and in [7] was greater than 100 µM each time. The TGI in test [8] and in test [9] was greater than 100 µM in each case.
On to `O=C([O-])C1([n+]2c(-c3ccccc3)cc(-c3ccccc3)cc2-c2ccccc2)CC1`, for which the TGI in [1] was greater than 100 µM; in test [2] it was greater than 100 µM; in [3] it was 68.4 µM; in test [4], greater than 100 µM; in [10], greater than 100 µM; in [7], greater than 100 µM. Besides, the TGI in test [8] and in test [9] was greater than 100 µM each time.
As to `CC(=O)Nc1cc(/C=C\C(=O)N2CC(CCl)c3c2cc(N)c2ccccc32)n(C)n1` (stereo not given), the TGI is 0.0211 µM in test [2]; 0.0126 µM in test [3]; greater than 100 µM in test [4]; 0.0416 µM and 0.0479 µM in test [5]; 0.0223 µM in test [6]; 0.0214 µM in test [9]. In [7], the GI50 was 0.0426 µM.
`N=C(N)c1ccc(N=Nc2c(O)ccc3cc(O)ccc23)cc1`: the TGI in test [1], in test [3], in test [4], in [10], in test [5] and in test [6] was greater than 100 µM throughout. Also, the TGI in test [7], in test [8] and in [9] was greater than 100 µM throughout.
For `CC1=NN(C(=O)c2ccc(C)cc2)C(=O)C1N=Nc1ccccc1C(=O)O` (stereo not given), the TGI in test [1], in [2], in [3], in test [4], in test [10] and in [5] was greater than 100 µM in each case. Moreover, the TGI in test [6], in test [7] and in [9] was greater than 100 µM throughout.
For `CCOC(=O)[C@H]1Nc2c(cccc2[N+](=O)[O-])C2c3ccccc3CC21` (stereo not given in full), the TGI in test [1] is greater than 100 µM; in test [4], 45.8 µM; in test [10], 74.9 µM; in test [5], greater than 100 µM; in [6], greater than 100 µM; in [7], greater than 100 µM. For the same molecule, the TGI in test [8] and in test [9] was greater than 100 µM each time.
As to `Cc1ccc2oc3c(ccc(=O)n3C)c(=O)c2c1`, the TGI in test [1], in test [2], in test [3], in [4], in test [10] and in test [5] was greater than 100 µM each time. Also, the TGI in test [6], in [7], in test [8] and in test [9] was greater than 100 µM each time.
In the case of `O=c1[nH]c(=S)[nH]c2c(C3OC(CO)C(O)C3O)nsc12` (stereo not given), the TGI in [1], in test [2], in [3], in test [4], in test [10] and in test [5] was greater than 100 µM in each case. In addition, the TGI in [6], in test [7] and in test [9] was greater than 100 µM each time.
Regarding `N/C(=N\N=C/c1cc([N+](=O)[O-])cc([N+](=O)[O-])c1O)NO`, the TGI in test [1] is greater than 100 µM; in test [2] it was greater than 100 µM; in test [3], greater than 55 µM; in [4] it was greater than 100 µM; in test [10] it was greater than 100 µM; in [5], greater than 100 µM. In addition, the TGI in test [6], in test [7] and in test [9] was greater than 100 µM each time.
Take `COc1cccc(/C=N/[N-]C(N)=O)c1[O-].[OH3+].[Pd+2]`: the TGI in test [1], in [2], in test [4], in [10], in test [5] and in test [6] was greater than 100 µM each time. The TGI in [7], in test [8] and in [9] was greater than 100 µM throughout.
In the case of `CC(N)=O.[Cl][Pt][Cl].[NH-]c1ccn(C2OC(CO)C(O)C2O)c(=O)n1` (stereo not given), the TGI in test [1], in [2], in test [4], in test [10], in test [5] and in [6] was greater than 100 µM in each case. Also, the TGI in test [7], in test [8] and in test [9] was greater than 100 µM in each case.
Take `CC1=CC(=O)c2c(O)c3c(c(O)c2C1=O)C1C(O)C(C3=O)C23C(=O)c4c(O)c(C)cc(O)c4C(O)=C2C(=O)CC(O)C13` (stereo not given): the TGI in test [1] is 2.91 µM; in test [2], 3.37 µM; in [3], greater than 100 µM; in test [10], 7.05 µM; in [5], 3.79 µM; in test [6] it was 3.57 µM. Also, the TGI amounted to 2.3 µM in test [7], 6.52 µM in test [8] and 5.07 µM in [9].
With `O=C(/C=C\c1ccc(/C=C/C(=O)Nc2cccc(C3=NCCCN3)c2)cc1)Nc1cccc(C2=NCCCN2)c1`, the TGI in test [1], in test [2], in test [3], in test [4], in [10] and in [5] was greater than 100 µM in each case. In addition, the TGI in [7] and in test [9] was greater than 100 µM each time.
On to `Clc1cccc(C2SCc3nc4ccccc4n32)c1` (stereo not given), for which the TGI in test [1] is 62.1 µM; in test [3], 31.6 µM; in test [4] it was 41.7 µM; in test [10] it was 67.2 µM; in test [6] it was greater than 100 µM; in test [7], greater than 100 µM. In addition, the TGI was 56.3 µM in [8] and 48.2 µM in [9].

For the origin of these results see PubChem BioAssay (NCI).
